The subject of test [1] is epithelial surfaces (both mucosa and skin). The test is described as follows: release of β-defensin 2 by epithelial surfaces. An excerpt: The stimulation of β-defensin 2 by hyaluronic acid has been observed by the patent inventor. […] The application of hyaluronic acid to the skin is thought to increase the amount of innate immunity antibiotic peptides such as β-defensin 2 that are present and therefore provide an increased level of innate immunity. The stimulation of defensin and other innate immunity antibiotic peptide expression in sites of skin and mucosa injury may therefore facilitate tissue repair by providing innate immunity and decreasing the possible bacterial contamination and colonisation of tissues by opportunistic pathogens.

The subject of test [2] is human keratinocytes. The test is described as follows: β-defensin production in culture medium containing human keratinocytes contacted with the compositions (FIG. 1). The note with it: compared with lipopolysaccharide. Type of test: cell-based. The source says: The data was obtained by measuring β-defensin production in culture medium containing human keratinocytes when contacted with the various compositions.

For the substance hyaluronic acid, the “release of β-defensin 2” value in test [1] is recorded as “able to determine the release of β-defensin 2 by epithelial surfaces”. For the same substance, the “stimulation of β-defensin production” value in test [2] is “stimulates β-defensin production by human keratinocytes significantly, and considerably more than lipopolysaccharide”.

Source of the values: patent US20100003311A1, “Antimicrobial Composition” (priority 2006, published 2010).
